Source: patent publication US20120121591A1 (priority 2009, published 2012)
Positions of bridges follow the written chain, without caps; N, C: chain ends. Residues, ends and D or L forms follow the SMILES beside them.

How the values were obtained:
Assay type in all cases: cell-based
hKv1.3 = hKv1.3 (Homo sapiens, UniProt P22001); assay: cell-based; conditions: Kv1.3 (IWQ) IC50 (nM, Avg)
[1] = tested on: IL-2 secretion from T cells in human whole blood; conditions: read-out: WB (IL-2) IC50 (nM, Avg)
[2] = tested on: IFN-g secretion from T cells in human whole blood; conditions: read-out: WB (IFNg) IC50 (nM, Avg)

Chain of hKv1.3 (P22001 whole entry): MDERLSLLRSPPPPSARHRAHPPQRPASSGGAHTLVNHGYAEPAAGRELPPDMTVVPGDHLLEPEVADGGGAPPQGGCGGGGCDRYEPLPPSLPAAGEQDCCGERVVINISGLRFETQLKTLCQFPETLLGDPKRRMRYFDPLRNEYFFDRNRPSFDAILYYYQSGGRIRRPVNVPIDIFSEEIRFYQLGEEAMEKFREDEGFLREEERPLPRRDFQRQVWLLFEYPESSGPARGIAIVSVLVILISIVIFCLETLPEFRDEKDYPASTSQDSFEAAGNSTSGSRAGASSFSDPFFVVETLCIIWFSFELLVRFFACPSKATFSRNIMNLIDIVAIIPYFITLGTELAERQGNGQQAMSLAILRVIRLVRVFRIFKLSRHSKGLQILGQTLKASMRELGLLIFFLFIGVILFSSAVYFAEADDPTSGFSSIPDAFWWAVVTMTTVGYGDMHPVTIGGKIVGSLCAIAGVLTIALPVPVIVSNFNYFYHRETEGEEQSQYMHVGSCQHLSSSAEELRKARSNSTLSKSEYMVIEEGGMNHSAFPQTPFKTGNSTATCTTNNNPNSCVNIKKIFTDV

| SMILES | IC50 (hKv1.3) | IC50 [1] | IC50 [2] |
| --- | --- | --- | --- |
| CC[C@H](C)[C@@H]1NC(=O)[C@H](CC(=O)O)NC(=O)[C@H]([C@@H](C)O)NC(=O)[C@@H]2CSSC[C@@H]3NC(=O)[C@H](CC(C)C)NC(=O)[C@H](CC(N)=O)NC(=O)[C@H](CC(C)C)NC(=O)[C@H](CCCNC(=N)N)NC(=O)[C@H](Cc4ccc(O)cc4)NC(=O)[C@H](CCCCN)NC(=O)[C@H](CCSC)NC(=O)[C@H](CO)NC(=O)[C@H]([C@@H](C)O)NC(=O)[C@H](CCCNC(=N)N)NC(=O)[C@H](CSSC[C@H](NC(=O)[C@H]([C@@H](C)O)NC(=O)[C@H](CCCCN)NC(=O)[C@H](CCCNC(=N)N)NC3=O)C(=O)NCC(=O)N[C@@H](CO)C(=O)N[C@H](C(=O)O)CSSC[C@H](NC(=O)[C@@H](NC(=O)[C@@H](N)CCCNC(=N)N)[C@@H](C)O)C(=O)N[C@@H](CCCCN)C(=O)N[C@@H](CC(=O)O)C(=O)N[C@@H](CC(C)C)C(=O)N[C@@H]([C@@H](C)CC)C(=O)N3CCC[C@H]3C(=O)N[C@@H](C(C)C)C(=O)N[C@@H](CO)C(=O)N[C@@H](CCC(=O)O)C(=O)N2)NC(=O)[C@H](CCCNC(=N)N)NC1=O [HmK, reference compound] (H-RTCKDLIPVSECTDIRCRTSMKYRLNLCRKTCGSC-OH; disulfide 3-35, 12-28, 17-32) | 0.9 nM | 0.85 nM | 1.2 nM |
| CC[C@H](C)[C@@H]1NC(=O)[C@@H](NC(=O)[C@H](CO)NC(=O)[C@@H](N)CCCNC(=N)N)CSSC[C@@H](C(=O)O)NC(=O)[C@H]([C@@H](C)O)NC(=O)CNC(=O)[C@@H]2CSSC[C@@H]3NC(=O)[C@H](CCC(N)=O)NC(=O)[C@H](Cc4ccccc4)NC(=O)[C@H](C)NC(=O)[C@H]([C@@H](C)O)NC(=O)[C@H](CSSC[C@H](NC(=O)[C@H](Cc4ccccc4)NC(=O)[C@H](CO)NC(=O)[C@H](CC(C)C)NC(=O)[C@H](CCCNC(=N)N)NC(=O)[C@H](Cc4ccc(O)cc4)NC(=O)[C@H](CCCCN)NC(=O)[C@H](CCSC)NC(=O)[C@H](CO)NC(=O)[C@H](Cc4c[nH]cn4)NC(=O)[C@H](Cc4cccc5ccccc45)NC3=O)C(=O)N[C@@H](CCCNC(=N)N)C(=O)N[C@@H](CCCCN)C(=O)N[C@@H]([C@@H](C)O)C(=O)N2)NC(=O)[C@H](CCCNC(=N)N)NC(=O)[C@H](CO)NC(=O)[C@H](CCCCN)NC(=O)[C@@H]2CCCN2C(=O)[C@H]([C@@H](C)CC)NC(=O)[C@H]([C@@H](C)O)NC(=O)[C@H](CC(=O)O)NC1=O [[1-Nal18]ShK] | 0.471 nM | 0.419 nM | 0.375 nM |
| CCCC[C@@H]1NC(=O)[C@H](CO)NC(=O)[C@H](Cc2c[nH]cn2)NC(=O)[C@H](CCCCN)NC(=O)[C@@H]2CSSC[C@@H]3NC(=O)[C@H]([C@@H](C)O)NC(=O)[C@H](CCCCN)NC(=O)[C@H](CCCNC(=N)N)NC(=O)[C@H](CSSC[C@H](NC(=O)[C@H](CCCNC(=N)N)NC(=O)[C@H](CO)NC(=O)[C@H](CCCCN)NC(=O)[C@@H]4CCCN4C(=O)[C@H]([C@@H](C)CC)NC(=O)[C@H]([C@@H](C)O)NC(=O)[C@H](CC(=O)O)NC(=O)[C@H]([C@@H](C)CC)NC(=O)[C@@H](NC(=O)[C@H](CO)NC(=O)[C@@H](N)CCCNC(=N)N)CSSC[C@@H](C(=O)N[C@@H](CC(=O)O)C(N)=O)NC(=O)[C@H]([C@@H](C)O)NC(=O)CNC3=O)C(=O)N[C@@H]([C@@H](C)O)C(=O)N[C@@H](C)C(=O)N[C@@H](Cc3ccccc3)C(=O)N[C@@H](CCCCN)C(=O)N2)NC(=O)[C@H](Cc2ccccc2)NC(=O)[C@H](CO)NC(=O)[C@H](CC(C)C)NC(=O)[C@H](CCCNC(=N)N)NC(=O)[C@H](Cc2ccc(O)cc2)NC(=O)[C@H](CCCCN)NC1=O [[Lys16, Nle21]ShK-Asp-amide] | 0.39 nM | 0.295 nM | 0.403 nM |
